Measured values reported in patent publication US20190064149A1, “CANCER EXAMINATION METHOD AND EXAMINATION KIT” (THE UNIVERSITY OF TOKYO, priority 2013, published 2019).

Target: T1, MT1-MMP (Homo sapiens, UniProt P50281)
T1 construct: expressed in transfected cells; host or cells: HT1080 (human fibrosarcoma) stably expressing c-myc-EphA2, transiently transfected with pSG-MT1-MMP
Test: EphA2 processing by MT1-MMP in HT1080 cells forcibly expressing MT1-MMP and Myc-labeled EphA2, western blotting
Type: cell-based
Experimental: HT1080 cells expressing c-myc-EphA2 stably were prepared by a ViraPower™ lentiviral expression system using a plenti-c-myc-EphA2 vector in HT1080 and expression vectors (pSG-MT1-6-MMPs) of MT1-6-MMPs were transiently introduced into the resulting cells. EphA2 and MT1-MMP were detected by western blotting using an anti-Myc polyclonal antibody and an anti-MT1-MMP monoclonal antibody. Respective expression vectors of the MT-MMPs were introduced using FuGene6 (Rhoche). Expression of c-myc-EphA2 and wild type MT1-MMP was confirmed by solubilizing each of the cells (10 cm) by RIPA and then performing immunoprecipitation (IP) of EphA2 and stud thereof by an anti C-myc antibody. In order to inhibit the protease activity of MT1-MMP, BB94 or TIMP-2 was added as an MMP inhibitor to a culture solution.

EphA2 species purified by immunoprecipitation with Myc antibody (HT1080 cells co-expressing Myc-EphA2 and wild type MT1-MMP): only a full length type EphA2
production of 65 and 60 kDa EphA2 processed fragments (HT1080 cells forcibly expressing MT1-MMP, inhibitor added to culture solution): suppressed
SMILES: CNC(=O)[C@H](Cc1ccccc1)NC(=O)[C@H](CC(C)C)[C@H](CSc1cccs1)C(=O)NO [BB94]
